From patent US7196117B2, “Use of cationic surfactant as activity enhancer in deodorants and oral care” (Laboratorios Miret, S.A., priority 2001, dated 2007) come the findings set out here.

The nature of one data set: toxicological studies. It is filed as in vivo. The settings on record: animals and humans.
A short description of another data set: metabolism in rats. It is filed as in vivo.

SMILES strings stand for the structures.

On to `CCCCCCCCCCCC(=O)N[C@@H](CCCN=C(N)N)C(=O)OCC.Cl` [LAE, ethyl ester of the lauramide of the arginine monohydrochloride], for which the toxicity entry in “toxicological studies” was “completely harmless to animals and humans”. In the data set “metabolism in rats”, the absorption and metabolism entry is “fast absorption and metabolism into naturally-occurring amino acids and the fatty acid lauric acid”.
